Experimental data: patent US12336994B2, “Alpha polyglutamated tetrahydrofolates and uses thereof” (L.E.A.F. HOLDINGS GROUP LLC, priority 2018, dated 2025)

What was measured:
[1] = system: NCI H2342 non-small cell lung cancer (NSCLC), adenocarcinoma subtype; experiment: CellTiter-Glo (CTG) luminescent cell viability assay, NCI H2342; type: cell-based, Human; conditions: NCI H2342, 48 hours of treatment
Protocol: (§1) Luciferase luminescence were recorded for each well.

HT-29 (colon cancer) = experiment: CellTiter-Glo (CTG) luminescent cell viability assay, HT-29; type: cell-based, Human; conditions: HT-29, 48 hours
Protocol: as §1

AML12 liver cells = experiment: Toxicity on AML12 non-cancerous liver cells; type: cell-based; conditions: all doses studied (16 nM to 128 nM), 48 hours
From the text: (§2) Methodologies used for cell line AML12 (non-cancerous liver cells) and CCD841 (non-cancerous colon epithelial cells) are similar to the methods used for cancer cells.

[2] = system: CCD841 colon epithelium cells; experiment: Toxicity on CCD841 non-cancerous colon epithelial cells; type: cell-based; conditions: all concentrations tested (16 nM, 32 nM, 64 nM, 128 nM), 48 hours
From the text: as §2

| Compound | potency (cytotoxic activity, dose response) compared among test articles and pemetrexed ([1]; listed as free L gamma G6) | potency (cytotoxic activity, dose response) compared among test articles and pemetrexed ([1]; listed as free pemetrexed gG6) | potency (cytotoxic activity, dose response) compared among test articles and pemetrexed (HT-29 (colon cancer); listed as free L gamma G6) | potency (cytotoxic activity, dose response) compared among test articles and pemetrexed (HT-29 (colon cancer); listed as free pemetrexed gG6) | reduction in the AML12 liver cell counts (AML12 liver cells) | decrease in the number of CCD841 colon epithelium cells [2] [%] |
| --- | --- | --- | --- | --- | --- | --- |
| Nc1nc2[nH]cc(CCc3ccc(C(=O)N[C@@H](CCC(=O)N[C@@H](CCC(=O)N[C@@H](CCC(=O)N[C@@H](CCC(=O)N[C@@H](CCC(=O)N[C@@H](CCC(=O)O)C(=O)O)C(=O)O)C(=O)O)C(=O)O)C(=O)O)C(=O)O)cc3)c2c(=O)[nH]1 [gG6, free pemetrexed L-gamma hexaglutamate] | lowest potency | least potent | lowest potency | least potent | – | – |
| Nc1nc2[nH]cc(CCc3ccc(C(=O)N[C@@H](CCC(=O)O)C(=O)O)cc3)c2c(=O)[nH]1 [pemetrexed] | – | – | – | – | approximately 40% | ≥ 50 |
